Data from patent publication US20200369728A1, “PEPTIDOMIMETIC MACROCYCLES AND USES THEREOF” (Aileron Therapeutics, Inc., priority 2015, published 2020).
Bridge positions count the residues as written; N and C are the ends. Square brackets hold non-standard residues; d marks the D form. Peptide text beside a SMILES is read from it. S8 = C=CCCCCCC[C@](C)(N)C(=O)O; R5 = C=CCCC[C@@](C)(N)C(=O)O

Experiments:
SJSA-1 = assay: Cell viability assay (MTT), SJSA-1; conditions: read-out: SJSA-1 EC50 (72 h); 72 h, MTT
Caspase 3 = Caspase 3 detection assay in SJSA1 cells; format: cell-based; conditions: SJSA1, 48 h, Caspase 3 activation over DMSO-treated cells
RKO = assay: Cell viability assay (MTT), RKO; conditions: read-out: RKO EC50 (72 h)
SJSA-1 cells = assay: Cell lysis by peptidomimetic macrocycles (LDH release); format: cell-based; conditions: SJSA-1, 1 h
How it was run: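 SJSA-1 cells plated the day before, switched to RPMI with 1% FBS, then exposed 1 h at 37 °C to macrocycle at final 50 μM to 6.25 μM in 0.5% DMSO. LDH released into the supernatant was measured by kit. Controls: 0.5% DMSO (non-lytic), 10 μM melittin and 1% Triton X-100 (lytic).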

CC[C@H](C)[C@H](NC(=O)[C@H](C)NC(=O)[C@H](C)NC(=O)[C@]1(C)CCCC=CCCCCCC[C@@](C)(NC(=O)[C@H](Cc2ccccc2)NC(=O)[C@@H](NC(=O)[C@H](CC(C)C)NC(C)=O)[C@@H](C)O)C(=O)N[C@@H](C)C(=O)N[C@@H](Cc2ccc(O)cc2)C(=O)N[C@@H](Cc2c[nH]c3ccccc23)C(=O)N[C@@H](C)C(=O)N[C@@H](CCC(N)=O)C(=O)N[C@@H](CC(C)C)C(=O)N1)C(=O)N[C@@H](C)C(N)=O (single isomer, unassigned) [compound 65]
EC50 (SJSA-1): < 5 µM
caspase 0.3 μM (Caspase 3; 0.3 μM): 1
caspase 3 μM (Caspase 3): 6
caspase 10 μM (Caspase 3): 28
caspase 30 μM (Caspase 3): 34
EC50 (RKO): 5 to 15 µM
6.25 μM % Lysed cells (1 h LDH) (SJSA-1 cells): 0%
25 μM % Lysed cells (1 h LDH) (SJSA-1 cells): 0%
50 μM % Lysed cells (1 h LDH) (SJSA-1 cells): 2%

CC[C@H](C)[C@H](NC(=O)[C@H](C)NC(=O)[C@H](C)NC(=O)[C@]1(C)CCCC=CCCCCCC[C@@](C)(NC(=O)[C@H](Cc2ccccc2)NC(=O)[C@@H](NC(=O)[C@H](CC(C)C)NC(C)=O)[C@@H](C)O)C(=O)N[C@@H](C)C(=O)N[C@@H](Cc2ccc(O)cc2)C(=O)N[C@@H](Cc2c[nH]c3ccccc23)C(=O)N[C@@H](C)C(=O)N[C@@H](CCC(N)=O)C(=O)N[C@@H](CC(C)C)C(=O)N1)C(=O)N[C@H](C)C(N)=O (single isomer, unassigned) [compound 70]
EC50 (SJSA-1): < 5 µM
caspase 3 μM (Caspase 3): 1
caspase 10 μM (Caspase 3): 9
caspase 30 μM (Caspase 3): 26
EC50 (RKO): < 5 µM

CCCC[C@H](NC(=O)[C@H](C)NC(=O)[C@H](C)NC(=O)[C@]1(C)CCCC=CCCCCCC[C@@](C)(NC(=O)[C@H](Cc2ccccc2)NC(=O)[C@@H](NC(=O)[C@H](CC(C)C)NC(C)=O)[C@@H](C)O)C(=O)N[C@@H](C)C(=O)N[C@@H](Cc2ccc(O)cc2)C(=O)N[C@@H](Cc2c[nH]c3ccccc23)C(=O)N[C@@H](C)C(=O)N[C@@H](CCC(N)=O)C(=O)N[C@@H](CC(C)C)C(=O)N1)C(=O)N[C@H](C)C(N)=O (single isomer, unassigned) [compound 74]
EC50 (SJSA-1): < 5 µM

CCCC[C@H](NC(=O)[C@H](C)NC(=O)[C@H](C)NC(=O)[C@]1(C)CCCC=CCCCCCC[C@@](C)(NC(=O)[C@H](Cc2ccccc2)NC(=O)[C@@H](NC(=O)[C@H](CC(C)C)NC(C)=O)[C@@H](C)O)C(=O)N[C@@H](C)C(=O)N[C@@H](Cc2ccc(O)cc2)C(=O)N[C@@H](Cc2c[nH]c3ccccc23)C(=O)N[C@@H](C)C(=O)N[C@@H](CCC(N)=O)C(=O)N[C@@H](CC(C)C)C(=O)N1)C(=O)N[C@@H](C)C(N)=O (single isomer, unassigned) [compound 68]
EC50 (SJSA-1): < 5 µM

CC(=O)N[C@@H](CC(C)C)C(=O)N[C@H](C(=O)N[C@@H](Cc1ccccc1)C(=O)N[C@]1(C)CCCCCCC=CCCC[C@@](C)(C(=O)N[C@@H](C)C(=O)N[C@@H](C)C(=O)N[C@H](C)C(=O)N[C@@H](C)C(=O)N[C@@H](C)C(=O)N[C@H](C)C(N)=O)NC(=O)[C@H](CC(C)C)NC(=O)[C@H](CCC(N)=O)NC(=O)[C@H](C)NC(=O)[C@H](Cc2c[nH]c3ccccc23)NC(=O)[C@H](Cc2ccc(O)cc2)NC(=O)[C@H](CCC(=O)O)NC1=O)[C@@H](C)O [compound 569]
EC50 (SJSA-1): < 5 µM

CC(=O)N[C@@H](CC(C)C)C(=O)N[C@H](C(=O)N[C@@H](Cc1ccccc1)C(=O)N[C@]1(C)CCCCCC/C=C/CCC[C@@](C)(C(=O)N[C@@H](C)C(=O)N[C@@H](C)C(=O)N[C@@H](C)C(=O)N[C@@H](C)C(=O)N[C@@H](C)C(=O)N[C@@H](C)C(N)=O)NC(=O)[C@H](CC(C)C)NC(=O)[C@H](CCC(N)=O)NC(=O)[C@H](C)NC(=O)[C@H](Cc2c[nH]c3ccccc23)NC(=O)[C@H](Cc2ccc(O)cc2)NC(=O)[C@H](CCC(=O)O)NC1=O)[C@@H](C)O [compound 573]
EC50 (SJSA-1): < 5 µM

CC(=O)N[C@@H](CC(C)C)C(=O)N[C@H](C(=O)N[C@@H](Cc1ccccc1)C(=O)N[C@]1(C)CCCC=CCCCCCC[C@@](C)(C(=O)N[C@@H](C)C(=O)N[C@@H](C)C(=O)N[C@@H](C)C(=O)N[C@@H](C)C(=O)N[C@@H](C)C(=O)N[C@H](C)C(N)=O)NC(=O)[C@H](CC(C)C)NC(=O)[C@H](CCC(N)=O)NC(=O)[C@H](C)NC(=O)[C@H](Cc2c[nH]c3ccccc23)NC(=O)[C@H](Cc2ccc(O)cc2)NC(=O)[C@H](CCC(=O)O)NC1=O)[C@@H](C)O [compound 631] (Ac-LTF[R5]EYWAQL[S8]AAAAA[dA]-NH2; staple 4-11)
EC50 (SJSA-1): < 5 µM

CC(=O)N[C@@H](CC(C)C)C(=O)N[C@H](C(=O)N[C@@H](Cc1ccccc1)C(=O)N[C@]1(C)CCCCCCC=CCCC[C@@](C)(C(=O)N[C@@H](C)C(=O)N[C@H](C)C(=O)N[C@@H](C)C(=O)N[C@@H](C)C(=O)N[C@@H](C)C(=O)N[C@H](C)C(N)=O)NC(=O)[C@H](CC(C)C)NC(=O)[C@H](CCC(N)=O)NC(=O)[C@H](C)NC(=O)[C@H](Cc2c[nH]c3ccccc23)NC(=O)[C@H](Cc2ccc(O)cc2)NC(=O)[C@H](CCC(=O)O)NC1=O)[C@@H](C)O [compound 568]
EC50 (SJSA-1): 5 to 15 µM

CCCC[C@H](NC(=O)[C@H](C)NC(=O)[C@H](C)NC(=O)[C@]1(C)CCCC=CCCCCCC[C@@](C)(NC(=O)[C@H](Cc2ccccc2)NC(=O)[C@@H](NC(=O)[C@H](CC(C)C)NC(C)=O)[C@@H](C)O)C(=O)N[C@@H](C)C(=O)N[C@@H](Cc2ccc(O)cc2)C(=O)N[C@@H](Cc2c[nH]c3ccccc23)C(=O)N[C@@H](C)C(=O)N[C@@H](CCC(N)=O)C(=O)N[C@@H](CC(C)C)C(=O)N1)C(=O)N[C@H](C)C(N)=O (single isomer, unassigned) [compound 75]
EC50 (SJSA-1): < 5 µM
6.25 μM % Lysed cells (1 h LDH) (SJSA-1 cells): −1%
25 μM % Lysed cells (1 h LDH) (SJSA-1 cells): 1%
50 μM % Lysed cells (1 h LDH) (SJSA-1 cells): 1%

CC[C@H](C)[C@H](NC(=O)[C@H](C)NC(=O)[C@H](C)NC(=O)[C@]1(C)CCCCCCC=CCCC[C@@](C)(NC(=O)[C@H](Cc2ccccc2)NC(=O)[C@@H](NC(=O)[C@H](CC(C)C)NC(C)=O)[C@@H](C)O)C(=O)N[C@@H](C)C(=O)N[C@@H](Cc2ccc(O)cc2)C(=O)N[C@@H](Cc2c[nH]c3ccccc23)C(=O)N[C@@H](C)C(=O)N[C@@H](CCC(N)=O)C(=O)N[C@@H](CC(C)C)C(=O)N1)C(=O)N[C@H](C)C(N)=O [compound 234]
EC50 (SJSA-1): < 5 µM

CC(=O)N[C@@H](CC(C)C)C(=O)N[C@H](C(=O)N[C@@H](Cc1ccccc1)C(=O)N[C@]1(C)CCCCCCC=CCCC[C@@](C)(C(=O)N[C@@H](C)C(=O)N[C@@H](C)C(=O)N[C@@H](C)C(=O)N[C@@H](C)C(=O)N[C@@H](C)C(=O)N[C@H](C)C(N)=O)NC(=O)[C@H](CC(C)C)NC(=O)[C@H](CCC(N)=O)NC(=O)[C@H](C)NC(=O)[C@H](Cc2c[nH]c3ccccc23)NC(=O)[C@H](Cc2ccc(O)cc2)NC(=O)[C@H](CCC(=O)O)NC1=O)[C@@H](C)O (single isomer, unassigned) [compound 579]
EC50 (SJSA-1): < 5 µM
